Measured values taken from patent publication US20250304537A1 (Repare Therapeutics Inc., priority 2022, published 2025).
Like-named read-outs stand apart in the source and are kept apart here.

What was measured:
[1] = system: PKMYT1 (CDK1 pThr14) in FUOV1 cells; test: PKMYT1 cell-based activity assay, CDK1 pThr14 AlphaLISA in FUOV1 cells; details: read-out: FUOV-1 CDK1 pThr14 IC50
How it was run: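 IC50 was derived from AlphaLISA signal (excitation 680 nm, emission 615 nm) for phospho-Thr14 CDK1 in lysates. The detection antibodies were rabbit anti-pThr14 and mouse anti-total CDK1, each at 5 nM. FUOV1 ovarian cells were exposed to compound for 2 hours before lysis.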

[2] = molecular target: recombinant human Myt1 (full length PKMYT1) (Homo sapiens (Human), UniProt Q99640); test: Recombinant human Myt1 kinase assay (ADP-Glo); assay type: biochemical; details: 10 μM ATP
Chain of recombinant human Myt1 (full length PKMYT1) (Q99640 whole entry): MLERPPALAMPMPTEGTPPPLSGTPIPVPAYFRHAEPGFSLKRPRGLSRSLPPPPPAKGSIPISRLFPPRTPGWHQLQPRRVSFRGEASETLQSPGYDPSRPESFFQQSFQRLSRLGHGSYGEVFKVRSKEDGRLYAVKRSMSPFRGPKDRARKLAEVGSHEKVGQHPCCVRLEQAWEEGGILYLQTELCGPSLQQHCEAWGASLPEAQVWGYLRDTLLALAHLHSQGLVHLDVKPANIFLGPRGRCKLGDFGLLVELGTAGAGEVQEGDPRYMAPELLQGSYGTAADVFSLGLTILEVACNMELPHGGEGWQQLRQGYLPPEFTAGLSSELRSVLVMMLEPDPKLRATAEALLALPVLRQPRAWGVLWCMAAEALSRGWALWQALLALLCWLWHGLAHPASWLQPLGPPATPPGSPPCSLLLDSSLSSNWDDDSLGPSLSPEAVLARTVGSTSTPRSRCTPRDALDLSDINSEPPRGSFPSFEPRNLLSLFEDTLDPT
How it was run: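 ADP-Glo luminescence measured ATP hydrolysis by recombinant full-length PKMYT1 (18 nM) after 60 min at 30 °C with 10 μM ATP. Compounds in 0.5% DMSO were added to the enzyme 15 min before ATP, at 22 °C, in HEPES/MgCl2/MnCl2 buffer. IC50 and percent maximal inhibition were derived.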

Compound | IC50 ([1]; 2 h, 2 h incubation) [µM] | IC50 [2] [µM] | IC50 ([1]; 2 h incubation) [µM] | IC50 ([1]; 2 h, 2 hours with compound) [µM] | IC50 ([1]; 2 h, 2 h compound incubation) [µM]
Cc1ccc2[nH]ncc2c1-c1cc(-c2cccc(OCc3ncco3)n2)nc(C(N)=O)c1N (atropisomer, axis not shown) [Compound 273] | – | 0.716 | 4.56 | – | –
COC[C@H](C)Oc1nccc(-c2cc(-c3c(C)ccc4[nH]ncc34)c(N)c(C(N)=O)n2)n1 [Compound 203] | 0.332 | 0.011 | – | – | –
Cc1ccc(O)c(C)c1-c1cc(-c2ccnnc2)cc(C(N)=O)c1N [Compound 93] | 0.937 | 0.025 | – | – | –
Cc1ccc(O)c(C)c1-c1cc(-c2nc3ccccc3s2)nc(C(N)=O)c1N [Compound 55] | – | 0.015 | 0.146 | – | –
Cc1ccc2[nH]ncc2c1-c1cc(-c2cccc(OC3(c4ncccn4)COC3)n2)nc(C(N)=O)c1N [Compound 256] | 0.132 | 0.021 | – | – | –
Cc1ccc(O)c(C)c1-c1cc(-c2ccns2)nc(C(N)=O)c1N [Compound 38] | 0.06 | 0.003 | – | – | –
Cc1ccc2[nH]ncc2c1-c1cc(-c2ccnc(OCCn3ccnc3)n2)nc(C(N)=O)c1N [Compound 315] | 0.349 | 0.009 | – | – | –
Cc1cccc(-c2nc(C(N)=O)c(N)c(-c3c(C)ccc4[nH]ncc34)n2)c1 [Compound 101] | 0.57 | 0.026 | – | – | –
Cc1ccc2[nH]ncc2c1-c1nc(-c2ccncc2)nc(C(N)=O)c1N [Compound 100] | 1.23 | 0.027 | – | – | –
Cc1ccc2[nH]ncc2c1-c1nc(-c2cc(F)ccc2Nc2ncccn2)nc(C(N)=O)c1N [Compound 472] | – | 0.006 | – | – | 0.026
Cc1ccc2[nH]ncc2c1-c1cc(-c2ccnc(N3CCCC3)n2)nc(C(N)=O)c1N [Compound 174] | 0.939 | 0.01 | – | – | –
Cc1ccc2[nH]ncc2c1-c1cc(-c2cccc(OC3CCCOC3)n2)nc(C(N)=O)c1N (centres unmarked) [Compound 306] | 0.449 | 0.007 | – | – | –
Cc1ccc(O)c(C)c1-c1cc(-c2ccnc(N)c2)nc(C(N)=O)c1N [Compound 45] | – | 0.002 | 0.06 | – | –
Cc1nnc(-c2cccc(-c3nc(C(N)=O)c(N)c(-c4c(C)ccc5[nH]ncc45)n3)c2)o1 [Compound 290] | 0.167 | 0.006 | – | – | –
Cc1ccc2[nH]ncc2c1-c1nc(-c2ccccc2NCC2(C)CC2)nc(C(N)=O)c1N [Compound 452] | – | 0.016 | – | – | 0.124
Cc1ccc2[nH]ncc2c1-c1nc(-c2cccnc2N)nc(C(N)=O)c1N [Compound 469] | – | 0.012 | – | – | 0.54
Cc1ccc2[nH]ncc2c1-c1nc(-c2cccnc2NCCn2ccnc2C)nc(C(N)=O)c1N [Compound 884] | – | 0.013 | – | 1.61 | –
Cc1ccc2[nH]ncc2c1-c1nc(-c2cc(F)cnc2NC2(C(F)(F)F)CC2)nc(C(N)=O)c1N [Compound 908] | – | < 0.003 | – | 0.095 | –

Compound | IC50 ([1]; 2 h, 2 h incubation) [µM] | IC50 [2] [µM] | IC50 ([1]; 2 h incubation) [µM] | IC50 ([1]; 2 h, 2 hours with compound) [µM] | IC50 ([1]; 2 h, 2 h compound incubation) [µM]
COc1ccc(-c2nc(C(N)=O)c(N)c(-c3c(C)ccc4[nH]ncc34)n2)c(NC(=O)C2(C)CC2)c1 [Compound 455] | – | 0.006 | – | – | 0.021
Cc1ccc2[nH]ncc2c1-c1nc(-c2ccccc2NC(=O)C2(Cl)CC2)nc(C(N)=O)c1N [Compound 441] | – | 0.004 | – | – | 0.008
Cc1ccc(O)c(C)c1-c1nc(-c2ccnnc2)cc(C(N)=O)c1N [Compound 88] | – | 0.007 | 0.401 | – | –
Cc1ccc2[nH]ncc2c1-c1nc(-c2ccc(F)cc2Nc2ccnc(C(C)C)c2)nc(C(N)=O)c1N [Compound 619] | – | 0.006 | – | – | 0.277
Cc1ccc2[nH]ncc2c1-c1nc(-c2cccc3cnsc23)nc(C(N)=O)c1N [Compound 396] | – | 0.005 | – | – | 0.152
Cc1ccc2[nH]ncc2c1-c1nc(-c2cccnc2NC[C@@H]2CCOC2)nc(C(N)=O)c1N [Compound 602] | – | 0.004 | – | – | 0.029
COc1cc(C)cc(-c2nc(C(N)=O)c(N)c(-c3c(C)ccc4[nH]ncc34)n2)c1 [Compound 143] | 1.47 | 0.023 | – | – | –
Cc1ccc2[nH]ncc2c1-c1nc(-c2ccc(Cl)cc2NC(=O)C2(C)CC2)nc(C(N)=O)c1N [Compound 438] | – | 0.004 | – | – | 0.017
Cc1ccc2[nH]ncc2c1-c1nc(-c2ccccc2NC2CC2)nc(C(N)=O)c1N [Compound 476] | – | 0.003 | – | – | 0.025
Cc1ccc2[nH]ncc2c1-c1nc(-c2cc(F)cnc2N[C@H]2CC[C@@](O)(C(F)(F)F)CC2)nc(C(N)=O)c1N [Compound 834] | – | 0.021 | – | 0.49 | –
COc1cccc(-c2cc(-c3c(C)ccc(O)c3C)c(N)c(C(N)=O)n2)n1 [Compound 62] | 0.117 | 0.008 | – | – | –
Cc1ccc2[nH]ncc2c1-c1cc(-c2cccc(Oc3cccc(N4CCCC4)c3)n2)nc(C(N)=O)c1N [Compound 182] | 1.6 | 0.015 | – | – | –
Cc1ccc2[nH]ncc2c1-c1cc(-c2cccc(OCCN3CCCC3)n2)nc(C(N)=O)c1N [Compound 180] | 0.099 | 0.01 | – | – | –
Cc1ccc2[nH]ncc2c1-c1nc(-c2ccccc2NC(=O)C2CC(C)(C)C2)nc(C(N)=O)c1N [Compound 417] | – | 0.018 | – | – | 0.899
Cc1ccc2[nH]ncc2c1-c1nc(-c2cc(F)c(F)cc2NCC(F)F)nc(C(N)=O)c1N [Compound 467] | – | 0.006 | – | – | 0.106
Cc1ccc2[nH]ncc2c1-c1nc(-c2ccccc2NC(=O)C2CCOCC2)nc(C(N)=O)c1N [Compound 424] | – | 0.004 | – | – | 0.081
Cc1ccc2[nH]ncc2c1-c1nc(-c2cccnc2N[C@H]2CCOCC2(C)C)nc(C(N)=O)c1N [Compound 830] | – | 0.008 | – | 0.305 | –
Cc1ccc2[nH]ncc2c1-c1nc(-c2cccnc2N[C@@H](c2cccnc2)C(F)F)nc(C(N)=O)c1N [Compound 937] | – | 0.002 | – | 0.216 | –

Continued, values first:

IC50 ([1]; 2 h, 2 h incubation) [µM] | IC50 [2] [µM] | IC50 ([1]; 2 h incubation) [µM] | IC50 ([1]; 2 h, 2 hours with compound) [µM] | IC50 ([1]; 2 h, 2 h compound incubation) [µM] | Compound
1.69 | 0.047 | – | – | – | Cc1ccc2[nH]ncc2c1-c1cc(-c2ccc(-c3nccs3)nc2)nc(C(N)=O)c1N [Compound 186]
– | < 0.003 | – | 0.027 | – | Cc1ccc2[nH]ncc2c1-c1nc(-c2cccnc2NC2(C)CC(C)(O)C2)nc(C(N)=O)c1N (centres unmarked) [Compound 901]
– | 0.011 | – | 0.086 | – | Cc1ccc2[nH]ncc2c1-c1nc(-c2cc(F)cnc2N[C@H]2CC[C@](O)(C(F)(F)F)CC2)nc(C(N)=O)c1N [Compound 835]
0.436 | 0.011 | – | – | – | Cc1ccc2[nH]ncc2c1-c1cc(-c2ccnc(NC3CC3)n2)nc(C(N)=O)c1N [Compound 163]
– | 0.004 | – | – | 0.025 | Cc1ccc2[nH]ncc2c1-c1nc(-c2cccnc2N[C@@H]2CCO[C@H](C)C2)nc(C(N)=O)c1N [Compound 603]
0.544 | 0.006 | – | – | – | Cc1ccc2[nH]ncc2c1-c1cc(-c2cccc(OCc3nccs3)n2)nc(C(N)=O)c1N [Compound 261]
– | 0.004 | 0.167 | – | – | Cc1ccc2[nH]ncc2c1-c1cc(-c2cccc(OCc3cccnn3)n2)nc(C(N)=O)c1N (atropisomer, axis not shown) [Compound 260]
0.737 | 0.031 | – | – | – | Cc1ccc(O)cc1-c1nc(-c2ccc(C(F)(F)F)cc2)nc(C(N)=O)c1N [Compound 7]
0.184 | 0.007 | – | – | – | Cc1ccc2[nH]ncc2c1-c1cc(-c2ccnc(OCC3CCCO3)n2)nc(C(N)=O)c1N (centres unmarked) [Compound 211]
– | 0.002 | – | – | 0.142 | Cc1ccc2[nH]ncc2c1-c1cc2c(oc3cccnc32)c(C(N)=O)c1N [Compound 458, 7-amino-8-(5-methyl-1H-indazol-4-yl)benzofuro[3,2-b]pyridine-6-carboxamide]
– | 0.002 | 0.068 | – | – | COc1ccc(-c2cc(-c3c(C)ccc(O)c3C)c(N)c(C(N)=O)n2)nc1 [Compound 61]
0.272 | 0.002 | – | – | – | Cc1ccc(O)c(C)c1-c1cc(-c2cc(C(F)(F)F)ccn2)nc(C(N)=O)c1N [Compound 67]
– | 0.006 | – | – | 0.228 | NC(=O)c1nc(-c2cc(F)c(F)cc2NCC(F)F)nc(-c2c(Cl)ccc3[nH]ncc23)c1N [Compound 468]
– | 0.005 | – | – | 0.158 | Cc1ccc2[nH]ncc2c1-c1nc(-c2cc(F)c(F)cc2NS(=O)(=O)C2CC2)nc(C(N)=O)c1N [Compound 480]
2.23 | 0.015 | – | – | – | NC(=O)c1nc(-c2ccccc2)nc(-c2c(Cl)ccc3[nH]ncc23)c1N [Compound 115, 5-amino-6-(5-chloro-1H-indazol-4-yl)-2-phenylpyrimidine-4-carboxamide]
1.97 | 0.01 | – | – | – | Cc1ccc2[nH]ncc2c1-c1cc(-c2cccc(F)n2)nc(C(N)=O)c1N [Compound 241]
– | 0.044 | – | – | 1.27 | Cc1ccc2[nH]ncc2c1-c1nc(-c2ccccc2C(O)c2ccccn2)nc(C(N)=O)c1N (centres unmarked) [Compound 788]
– | 0.004 | – | – | 0.023 | Cc1ccc2[nH]ncc2c1-c1nc(-c2ccccc2NC(=O)C2(C#N)CC2)nc(C(N)=O)c1N [Compound 423]
> 10 | 0.023 | – | – | – | Cc1ccc2[nH]ncc2c1-c1nc(-c2ccc(C(=O)O)cc2)nc(C(N)=O)c1N [Compound 146]
– | 4.05 | – | > 10 | – | CCNC(=O)c1ccccc1-c1nc(C(N)=O)c(N)c(-c2c(C)ccc3[nH]ncc23)n1 [Compound 807]
0.278 | 0.006 | – | – | – | Cc1ccc2[nH]ncc2c1-c1cc(-c2ccnc(Oc3ccccc3)n2)nc(C(N)=O)c1N [Compound 173]
0.772 | 0.006 | – | – | – | Cc1ccc2[nH]ncc2c1-c1nc(-c2cccc3ncsc23)nc(C(N)=O)c1N [Compound 380]
